According to patent publication US7473688B2, “Indolobenzazepine HCV NS5B inhibitors” (Bristol-Myers Squibb Company, priority 2005, dated 2009):
Like-named read-outs stand apart in the source and are kept apart here.

Key:
HCV replicon = HCV replicon FRET assay; assay type: cell-based; conditions: Hepatitis C virus, FRET assay, read-out: EC50*
Outline: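 HCV replicon cells, with or without Renilla luciferase reporter, incubated with titrated compounds at 37 °C; Alamar blue read for cytotoxicity. NS3 protease activity read from lysates with 20 μM EDANS/DABCYL FRET peptide (340/490 nm, kinetic), or by Dual-Glo luciferase. Background from highest protease-inhibitor wells; EC50 = 50% signal reduction.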

HCV NS5B = target: T1, HCV NS5B (Hepatitis C virus genotype 1b, UniProt Q9WMX2); assay: HCV NS5B RdRp enzyme assay (preincubation protocol); assay type: biochemical
T1 construct: The protein was expressed with an 18 amino acid C-terminal truncation to enhance the solubility; made in house; host or cells: E. coli BL21 (DE3), pET21a
T1 sequence (Q9WMX2 2420-2992): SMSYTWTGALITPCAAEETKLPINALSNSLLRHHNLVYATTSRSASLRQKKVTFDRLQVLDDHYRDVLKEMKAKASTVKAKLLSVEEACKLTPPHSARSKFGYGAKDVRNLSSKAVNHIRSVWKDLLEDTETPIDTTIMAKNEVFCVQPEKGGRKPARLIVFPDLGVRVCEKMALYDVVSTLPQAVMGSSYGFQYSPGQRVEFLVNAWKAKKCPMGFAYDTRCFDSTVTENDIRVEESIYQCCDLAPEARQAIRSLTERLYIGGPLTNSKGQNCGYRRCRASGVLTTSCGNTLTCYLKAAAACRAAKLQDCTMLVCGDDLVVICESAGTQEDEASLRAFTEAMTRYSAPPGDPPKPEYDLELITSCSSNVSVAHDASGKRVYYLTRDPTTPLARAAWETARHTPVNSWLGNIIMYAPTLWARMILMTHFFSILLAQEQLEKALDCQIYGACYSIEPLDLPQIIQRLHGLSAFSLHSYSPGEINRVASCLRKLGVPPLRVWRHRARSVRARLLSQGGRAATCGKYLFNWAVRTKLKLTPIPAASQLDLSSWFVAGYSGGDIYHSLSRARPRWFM
Outline: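 C-terminally truncated (Δ18) genotype 1b NS5B from E. coli, 14 nM, added to compound, then polyA template (0.2 nM), 3H-UTP (0.29 μM) and oligo-dT12 primer precaptured on streptavidin SPA beads. 4 h at 30 °C, pH 7.5, 2% DMSO; SPA readout; IC50 from seven concentrations by logistic fit.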

| SMILES | EC50 (HCV replicon; Table 1b) | IC50 (HCV NS5B; Table 1b, read-out: IC50*) | EC50 (HCV replicon; Table 1) | IC50 (HCV NS5B; Table 1, read-out: IC50*) | also measured |
| --- | --- | --- | --- | --- | --- |
| COc1ccc2c(c1)CC(NC(=O)N1CCC(C(N)=O)C1)Cn1c-2c(C2CCCCC2)c2ccc(C(=O)NS(=O)(=O)N(C)C)cc21 (stereo not shown) | 30 to 1000 nM | 20 to 1000 nM |  |  |  |
| CN(C)S(=O)(=O)NC(=O)c1ccc2c(C3CCCCC3)c3n(c2c1)CC(C(=O)N1CC[C@@H](F)C1)=Cc1ccccc1-3 |  |  | 70 to 1000 nM | 10 to 1000 nM |  |
| CN(C)S(=O)(=O)NC(=O)c1ccc2c(C3CCCCC3)c3n(c2c1)CC(C(=O)N1CCN(S(C)(=O)=O)CC1)=Cc1cc(OCc2ccccc2)ccc1-3 |  |  | 70 to 1000 nM | 10 to 1000 nM |  |
| COc1ccc2c(c1)C=C(C(=O)N1C[C@@H](C)O[C@@H](C)C1)Cn1c-2c(C2CCCCC2)c2ccc(C(=O)NS(=O)(=O)N3CCC3)cc21 | 30 to 1000 nM | 20 to 1000 nM |  |  |  |
| O=C(O)c1ccc2c(C3CCCCC3)c3n(c2c1)C[C@H](NC(=O)N1CCOCC1)Cc1ccccc1-3 |  |  | 70 to 1000 nM | 10 to 1000 nM |  |
| COc1ccc2c(c1)C=C(C(=O)N1CCOCC1)Cn1c-2c(C2CCCCC2)c2ccc(C(=O)NS(=O)(=O)N3CCCC3)cc21 | 30 to 1000 nM | 20 to 1000 nM |  |  |  |
| COc1ccc2c(c1)C=C(C(=O)N1CCC(CO)CC1)Cn1c-2c(C2CCCCC2)c2ccc(C(=O)NS(=O)(=O)N(C)C)cc21 | 30 to 1000 nM | 20 to 1000 nM |  |  |  |
| COc1cccc2c1C=C(C(=O)N1CCOC(CF)C1)Cn1c-2c(C2CCCCC2)c2ccc(C(=O)NS(=O)(=O)N(C)C)cc21 (stereo not shown) | 30 to 1000 nM | 20 to 1000 nM |  |  |  |
| NC(=O)C1CCN(C(=O)C2=Cc3ccccc3-c3c(C4CCCCC4)c4ccc(C(=O)O)cc4n3C2)C1 (stereo not shown) |  |  | 1000 to 10000 nM | 10 to 1000 nM |  |
| COC[C@H]1CCCN1C(=O)C1=Cc2ccccc2-c2c(C3CCCCC3)c3ccc(C(=O)NS(=O)(=O)N(C)C)cc3n2C1 |  |  | 70 to 1000 nM | 10 to 1000 nM |  |
| COc1ccc2c(c1)C=C(C(=O)N(CC(=O)N(C)C)CC(=O)N(C)C)Cn1c-2c(C2CCCCC2)c2ccc(C(=O)NS(=O)(=O)N(C)C)cc21 | 30 to 1000 nM | < 20 nM |  |  |  |
| COc1ccc2c(c1)C=C(C(=O)N1CCN(CCO)CC1)Cn1c-2c(C2CCCCC2)c2ccc(C(=O)NS(=O)(=O)N(C)C)cc21 | 30 to 1000 nM | 20 to 1000 nM |  |  |  |
| COc1ccc2c(c1)C[C@@H](NC(=O)N(C)CC(=O)N(C)C)Cn1c-2c(C2CCCCC2)c2ccc(C(=O)NS(=O)(=O)N(C)C)cc21 | 30 to 1000 nM | 20 to 1000 nM |  |  |  |
| COc1ccc2c(c1)CC(NC(=O)N1C[C@@H]3C[C@H]1CO3)Cn1c-2c(C2CCCCC2)c2ccc(C(=O)NS(=O)(=O)N(C)C)cc21 (stereo partly shown) |  |  |  |  | EC50 (HCV replicon; Table 1a): 30 to 1000 nM; IC50 (HCV NS5B; Table 1a, read-out: IC50*): 10 to 1000 nM |
| O=C(NS(=O)(=O)N1CCN(CC(F)(F)F)CC1)c1ccc2c(C3CCCCC3)c3n(c2c1)CC(C(=O)N1CCOCC1)=Cc1ccccc1-3 [drawing 395] | 30 to 1000 nM | 20 to 1000 nM |  |  |  |
| C[C@@H]1CN(CCNC(=O)C2=Cc3ccccc3-c3c(C4CCCCC4)c4ccc(C(=O)NS(=O)(=O)N(C)C)cc4n3C2)C[C@H](C)O1 [drawing 130] |  |  | 70 to 1000 nM | 10 to 1000 nM |  |
| O=C(NS(=O)(=O)C(F)(F)F)c1ccc2c(C3CCCCC3)c3n(c2c1)CC(C(=O)N1CCOCC1)Cc1ccccc1-3 (stereo not shown) |  |  | 70 to 1000 nM | 10 to 1000 nM |  |
| CCN(C(C)=O)C1CCN(C(=O)C2=Cc3ccccc3-c3c(C4CCCCC4)c4ccc(C(=O)NS(=O)(=O)N(C)C)cc4n3C2)C1 (stereo not shown) |  |  | 70 to 1000 nM | 10 to 1000 nM |  |
| CN(C)S(=O)(=O)NC(=O)c1ccc2c(C3CCCCC3)c3n(c2c1)CC(C(=O)Nc1nccs1)=Cc1ccccc1-3 |  |  | 70 to 1000 nM | 10 to 1000 nM |  |
| O=C(O)c1ccc2c(C3CCCCC3)c3n(c2c1)CC(C(=O)N1CCN(C(=O)N2CCOCC2)CC1)=Cc1ccccc1-3 |  |  | 70 to 1000 nM | 10 to 1000 nM |  |
| COc1ccc2c(c1)C=C(C(=O)N(C)Cc1ccccn1)Cn1c-2c(C2CCCCC2)c2ccc(C(=O)NS(=O)(=O)N(C)C)cc21 | 30 to 1000 nM | 20 to 1000 nM |  |  |  |
| COc1ccc2c(c1)C=C(C(=O)N(C)CC(=O)N1CC(OC)C1)Cn1c-2c(C2CCCCC2)c2ccc(C(=O)NS(=O)(=O)N(C)C)cc21 |  |  |  |  | EC50 (HCV replicon; Table 1a): 30 to 1000 nM; IC50 (HCV NS5B; Table 1a, read-out: IC50*): 10 to 1000 nM |
| COc1ccc2c(c1)C=C(C(=O)N(C)CC(=O)N1CCC1)Cn1c-2c(C2CCCCC2)c2ccc(C(=O)NS(=O)(=O)N(C)C)cc21 |  |  |  |  | EC50 (HCV replicon; Table 1a): 30 to 1000 nM; IC50 (HCV NS5B; Table 1a, read-out: IC50*): 10 to 1000 nM |
| CN(C)S(=O)(=O)NC(=O)c1ccc2c(C3CCCCC3)c3n(c2c1)CC(C(=O)N1CCC(C(=O)N2CCCC2)CC1)=Cc1ccccc1-3 |  |  | 70 to 1000 nM | 10 to 1000 nM |  |
| CN(C)S(=O)(=O)NC(=O)c1ccc2c(C3CCCCC3)c3n(c2c1)CC(C(=O)N1CCC(CNC(=O)c2ccccc2)C1)=Cc1ccccc1-3 (stereo not shown) |  |  | 70 to 1000 nM | 10 to 1000 nM |  |
| CN(C)S(=O)(=O)NC(=O)c1ccc2c(C3CCCCC3)c3n(c2c1)CC(C(=O)N1CCN(S(C)(=O)=O)CC1)=Cc1ccccc1-3 |  |  | 70 to 1000 nM | 10 to 1000 nM |  |
